On the set-up of data set [1]: AUC(0→t) / Cmax: unit not given beside the values. The note with it: rat, in vivo.
Data set [2] relates to DN. On the set-up: method as in Guo et al., 2017. The settings on record: in vitro and in vivo; ref Guo et al., 2017; cited from earlier work.
A short description of data set [3]: in vivo. The note with it: male, Sprague-Dawley, rat, po; for half-life: t1/2.
Description: (§1) Thirty male Sprague–Dawley rats (200 ± 20 g) were purchased from the Nanjing Qinglongshan Experimental Animal Center (Nanjing, China). […] All rats were divided randomly into two groups: ZJTSD-dosed group (n = 27) and control group (n = 3). The ZJTSD-dosed group was given the ZJTSD solution by gavage (i.g.) at a dosage of 1 mL/100 g body weight of rats, and the control group was given 0.9% normal saline at the same dose, twice a day for a week. After the last administration, the blood was collected from the hepatic portal vein at 15 min, 30 min, 1 h, 2 h, 4 h, 6 h, 8 h, 12 h, and 24 h, and 3 rats were taken at each time point.
(§2) The blood samples of rats were centrifuged at 4,000 rpm for 10 min to obtain the serum. The serum sample (1 mL) was processed with a 3-fold volume using methanol for protein precipitation, with epicoprostanol serving as the internal standard (digoxin and clarithromycin). After vortexing for 3 min, the mixture was centrifuged at 18,000 rpm for 10 min. Subsequently, the supernatant was evaporated at 45°C using a vacuum concentrator. After evaporating the solvent, 150 μL of methanol/water (1:1, v/v) was added, vortexed, sonicated, and then centrifuged at 18,000 rpm for 10 min at 4°C. The resulting supernatant was used for further analysis.
(§3) Liquid chromatographic separation was performed using an AB SCIEX LC™ 2.0 system (AB SCIEX, United States) fitted with an Acquity UPLC BEH C18 column (100 mm × 2.1 mm, 1.7 μm; Ireland). The mobile phases in negative and positive ion modes consisted of 0.1% FA aqueous solution (A) and acetonitrile containing 0.1% FA (B). The program of the elution gradient was set as follows: 0∼5 min, 2%∼35 %B; 5∼7 min, 35%∼50%; 7∼10 min, 50%∼70%; 10∼15 min, 70%∼90 %B; 15∼18 min, 90%∼90 %B; 18∼18.5 min, 90%∼2 %B; and 18.5∼20 min, 2%∼2 %B. The injection volume was 3 µL. The flow rate and the column temperature were set at 0.3 mL/min and 40°C, respectively.
(§4) The mass spectrometry analysis was performed on a SCIEX ZenoTOF™ 7600 system (AB SCIEX, United States), which was calibrated in the high-sensitivity mode for every 10 samples. Spectra were acquired in the TOF/MS-IDA-TOF MS/MS mode with the ESI source operating in positive and negative ion modes. MS parameters were set as follows: ionization source, ESI; spray voltage, 5,500 kV/–4,500 kV; collision energy, 40 V/–40 V; declustering potential, 80 V/–80 V; ion source temperature, 550°C; and scan range, 100–1250 m/z. Data acquisition and processing were performed using SCIEX OS 2.2 and PeakView 2.2.
(§5) A semi-quantitative method was adopted based on the correction peak area versus time ([Wang et al., 2011]; [Lin et al., 2019]). The mean serum time-course profile of pharmacokinetics based on the peak area ratio versus time was plotted using Origin 2018. The kinetic analysis of the peak area ratio (×1,000)–time curve was calculated using Phoenix WinNonlin 8.1 (Phoenix, American) software and illustrated.
Data set [4] deals with DN mice. On the set-up: method as in Tian et al., 2018. The note with it: ref Tian et al., 2018; cited from earlier work.
Data set [5] can be described thus: Multi-compound pharmacokinetics of ZJTSD in rat serum, semi-quantitative UPLC-Q/TOF-MS (peak area ratio versus time, non-compartmental). The note with it: male, Sprague-Dawley, rat, serum (hepatic portal vein blood), po, 1 mL/100 g body weight.
Description: as §1, §2, §3, §4, §5

Like-named read-outs stand apart in the source and are kept apart here.

With `O=C(O)c1cc2c(cc1O)C(=O)c1ccccc1C2=O` [M28], in data set [1] (po), the “AUC (in words)” value was “greater”; the Tmax is given as ≤ 3.5 h; the “elimination half-life (t1/2)” value is listed as “less than 4 h”; the “pharmacokinetic behavior compared with other prototype compounds and metabolites (in words)” value is “better pharmacokinetic behavior”.
`O=C1c2ccccc2C(=O)c2ccccc21` [M52]: in data set [1] (po), the “AUC (in words)” value is recorded as “greater”; the “Cmax / peak concentration (in words)” value is recorded as “higher peak concentrations”; the Tmax was > 4 h; the “pharmacokinetic behavior compared with other prototype compounds and metabolites (in words)” value is reported as “better pharmacokinetic behavior”.
With `Cc1cc(O)c2c(c1)C(=O)c1cccc(O)c1C2=O` [M56], in data set [1] (po), the “AUC (in words)” value is given as “greater”, the “Cmax / peak concentration (in words)” value is recorded as “higher peak concentrations”, the Tmax was ≤ 3.5 h and the “elimination half-life (t1/2)” value is listed as > 7.5 h. Further, in data set [1] (po), the “pharmacokinetic behavior compared with other prototype compounds and metabolites (in words)” value is given as “better pharmacokinetic behavior”; the “time to peak (in words)” value was “faster time to peak”.
`Cc1cc(O)c2c(c1)C(=O)c1cc(O)ccc1C2=O` [M61]: the “AUC (in words)” value in data set [1] (po) is reported as “greater”.
In the case of `CC(=O)CCc1ccc(OS(=O)(=O)O)cc1` [M85], in data set [1] (po), the “AUC (in words)” value is reported as “greater”; the Tmax was ≤ 3.5 h; the “elimination half-life (t1/2)” value is listed as “less than 4 h”; the “pharmacokinetic behavior compared with other prototype compounds and metabolites (in words)” value is “better pharmacokinetic behavior”.
In the case of `Oc1ccccc1O` [M94], in data set [1] (po), the “AUC (in words)” value is “greater”; the Tmax was ≤ 3.5 h; the “elimination half-life (t1/2)” value was > 7.5 h; the “pharmacokinetic behavior compared with other prototype compounds and metabolites (in words)” value is on record as “better pharmacokinetic behavior”.
Turning to `C[N+](C)(C)CCOP(=O)([O-])OCC(O)COCCCCCCCCCCCCCCC=O` (stereo not shown) [M99], in data set [1] (po), the Tmax is reported as ≤ 3.5 h; the “elimination half-life (t1/2)” value is reported as > 7.5 h; the “pharmacokinetic behavior compared with other prototype compounds and metabolites (in words)” value was “better pharmacokinetic behavior”.
Consider `Cc1cc(O[C@@H]2O[C@H](CO)[C@@H](O)[C@H](O)[C@H]2O)cc2oc(CC(C)O)cc(=O)c12` (stereo partly drawn) [P7, 2-(2-Hydroxypropyl)-5-methyl-7-hydroxychromone-7-O-β-D-glucoside], for which, in data set [1], the “AUC(0→t)” value was determined as 1.05±0.08, the Cmax stood at 0.23±0.06, the “MRT(0→t)” value worked out at 6.76±1.16 and the Tmax was found to be 0.92±0.95. The molecule also registered a t1/2 in data set [1] of 7.53±1.65.
In the same order, the values of `COc1ccc2c(c1OC)O[C@H]1c3ccc(O)cc3OC[C@@H]21` [P8, Methylnissolin] are 3.73±0.45, 0.77±0.18, 6.10±1.53, 0.42±0.14 and 4.16±2.01.
Consider `COc1cc2c(=O)c(-c3ccc(O)cc3)coc2cc1O[C@@H]1O[C@H](CO)[C@@H](O)[C@H](O)[C@H]1O` [P9, Glycitin], for which, in data set [1], the “AUC(0→t)” value is on record as 1.99±0.28, the Cmax turned out to be 0.80±0.39, the “MRT(0→t)” value is recorded as 4.70±1.01 and the Tmax is reported as 0.92±0.95. Further, the t1/2 in data set [1] was 3.56±1.89.
What is called MRT last is the average time that molecules of a dose stay in the body. Usually half-life stands for the time needed for the level to fall by half in the phase considered. Turning to `Cc1cc(O)c2c(c1)C(=O)c1cccc(O)c1C2=O` [P13, Chrysophanol], in data set [1], the “AUC(0→t)” value stood at 119599.26±21102.35 and the Cmax was 26478.39±12536.14. The “level of exposure in the blood (in words)” value in data set [1] (po) is given as “higher level of exposure”. Also, the “effect on progression of DN” value in data set [2] was “significantly slowed the progression of DN”. For the same molecule, in data set [3], the mean residence time MRT last amounted to 4.89 ± 0.61 h, the Tmax worked out at 1.67 ± 2.02 h and the half-life is 2.42 ± 1.63 h.
For `Cc1cc(O)c2c(c1)C(=O)c1cc(O)cc(O)c1C2=O` [P16, Emodin], in data set [1] (po), the “detection in serum / absorbed form” value is given as “absorbed as prototype compounds”. In data set [4], the “effect on urinary albumin, serum creatinine and blood urea nitrogen” value is “improved urinary albumin, serum creatinine, and blood urea nitrogen levels”. Moreover, in data set [5], the MRT last stood at 5.84 ± 0.37 h and the Tmax was 2.83 ± 2.02 h. The half-life in data set [5] (t1/2, prototype compounds of ZJTSD absorbed into rat serum, mean±SD, n=3) was 8.19 ± 9.39 h.
In the case of `Cc1cc(O)c2c(c1)C(=O)c1cc(C(=O)O)cc(O)c1C2=O` [P19, 6-Methyl-rhein], in data set [1], the “AUC(0→t)” value is 406691.82±79143.95, the Cmax is given as 79253.50±34585.36, the “MRT(0→t)” value is on record as 5.64±1.31 and the t1/2 is recorded as 1.98±0.38.
Take `COc1cccc2c1C(=O)c1c(O)cc(C)cc1C2=O` [P20, 8-Methyl chrysophanol]: in data set [1], the “AUC(0→t)” value is 49952.22±8257.37, the Cmax came out at 15105.85±4254.91, the “MRT(0→t)” value amounted to 4.30±0.34 and the Tmax is reported as 0.67±0.29. This molecule returned a t1/2 in data set [1] of 3.38±0.96. For the same molecule, in data set [1] (po), the “level of exposure in the blood (in words)” value is “higher level of exposure”; the “pharmacokinetic behavior compared with other prototype compounds and metabolites (in words)” value is “better pharmacokinetic behavior”.
In the case of `CC(CO)C1=C(O)c2ccc3c(c2C(=O)C1=O)CCCC3(C)C` (stereo not shown) [P31, Tanshinone V], in data set [1], the “AUC(0→t)” value is given as 269.12±44.99, the Cmax is reported as 44.36±4.60, the “MRT(0→t)” value is listed as 5.85±0.84 and the Tmax turned out to be 5.33±2.31. The molecule further came in with a t1/2 in data set [1] of 7.21.
Take `CCCCOC(=O)c1ccccc1C(=O)OCCCC` [P49, Dibutyl phthalate]: in data set [1], the “AUC(0→t)” value amounted to 542.84±7.58 and the Cmax came to 26.50±1.13. Also, in data set [3], the mean residence time (MRT last) is 12.1 ± 0.17 h and the Tmax was 8.08 ± 6.78 h.
On to `CCCCCCCCCCCCCCCC(=O)OC[C@@H](O)COP(=O)([O-])OCC[N+](C)(C)C` [P50, 1-O-Hexadecanoyl-sn-glycero-3-phosphocholine], for which, in data set [1], the “AUC(0→t)” value was determined as 149276.86±8351.53 and the Cmax amounted to 11488.73±739.96. In data set [3], the MRT last amounted to 10.2 ± 0.58 h, the Tmax was 1 ± 0.87 h and the half-life is 21.9 ± 12.8 h.
For `O=C1C[C@@H](c2ccc(O[C@@H]3O[C@H](CO)[C@@H](O)[C@H](O)[C@H]3O)cc2)Oc2cc(O)ccc21` [liquiritin], the “detection in serum / absorbed form” value in data set [1] (po) is recorded as “not detected in the serum”.

(Values after article PMC10957775, “Integrated chemical characterization, metabolite profiling, and pharmacokinetics analysis of Zhijun Tangshen Decoction by UPLC-Q/TOF-MS” (Frontiers in Pharmacology, 2024).)
